Laboratory results from PubChem BioAssay AID330 (DTP/NCI, 2004).
Several values for one entry are separate records, joined by “and”; a condition that tells them apart may be missing. Equal values may be shown once. Toxic doses and inconclusive results are not listed. The calls were made as follows: active = survival T/C of 150% or more; inactive = T/C below 125% in these data.

Test system: P388 leukemia ip, CD2F1 mice, survival T/C
Assay: NCI In Vivo Anticancer Drug Screen. Data for tumor model P388 Leukemia (intraperitoneal) in CD2F1 (CDF1) mice
Conditions: endpoint: median survival time, higher = longer survival
Summary of the method: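 Mice carrying the transplanted tumor received test compound or vehicle. Survival was recorded in each group, and the value is the treated-group measurement divided by that of the vehicle-treated control group.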

[1] = dose: 12.5 mg/kg/injection, schedule: Q01DX009 (ip), vehicle: saline with Tween-80
[2] = dose: 25.0 mg/kg/injection, schedule: Q01DX009 (ip), vehicle: saline with Tween-80
[3] = dose: 50.0 mg/kg/injection, schedule: Q01DX009 (ip), vehicle: saline with Tween-80
[4] = dose: 100.0 mg/kg/injection, schedule: Q01DX009 (ip), vehicle: saline with Tween-80
[5] = dose: 200.0 mg/kg/injection, schedule: Q04DX003 (ip), vehicle: saline with Tween-80
[6] = dose: 60.0 mg/kg/injection, schedule: Q01DX005 (ip), vehicle: saline with Tween-80
[7] = dose: 120.0 mg/kg/injection, schedule: Q01DX005 (ip), vehicle: saline with Tween-80
[8] = dose: 50.0 mg/kg/injection, schedule: Q01DX005 (ip), vehicle: saline with Tween-80
[9] = dose: 100.0 mg/kg/injection, schedule: Q01DX005 (ip), vehicle: saline with Tween-80
[10] = dose: 200.0 mg/kg/injection, schedule: Q01DX005 (ip), vehicle: saline with Tween-80
[11] = dose: 50.0 mg/kg/injection, schedule: Q01DX009 (ip), vehicle: saline
[12] = dose: 100.0 mg/kg/injection, schedule: Q01DX009 (ip), vehicle: saline
[13] = dose: 200.0 mg/kg/injection, schedule: Q01DX009 (ip), vehicle: saline
[14] = dose: 6.25 mg/kg/injection, schedule: Q01DX009 (ip), vehicle: saline with Tween-80
[15] = dose: 50.0 mg/kg/injection, schedule: Q01DX009 (ip), vehicle: Klucel (hydroxypropylcellulose) (HPC)
[16] = dose: 100.0 mg/kg/injection, schedule: Q01DX009 (ip), vehicle: Klucel (hydroxypropylcellulose) (HPC)
[17] = dose: 200.0 mg/kg/injection, schedule: Q01DX009 (ip), vehicle: Klucel (hydroxypropylcellulose) (HPC)

Measured: T/C

CCOC(=O)c1nnn(Cc2ccccc2)c1N
inactive: [1] 104 % of control | [2] 100 % of control | [3] 100 % of control | [4] 104 % of control

CSc1nc(C)c(Br)c(Sc2nc(N)nc3nc[nH]c23)n1
inactive: [1] 104 % of control | [3] 113 % of control and 122 % of control | [5] 95 % of control

NC(=O)C(CCCCNc1c(C(=O)O)cc([N+](=O)[O-])cc1[N+](=O)[O-])NC(=O)c1ccccc1 (stereo not given)
inactive: dose: 60.0 mg/kg/injection, schedule: Q01DX005 (ip), vehicle: saline 100 % of control | dose: 120.0 mg/kg/injection, schedule: Q01DX005 (ip), vehicle: saline 105 % of control | dose: 240.0 mg/kg/injection, schedule: Q01DX005 (ip), vehicle: saline 100 % of control

CCN1c2ccccc2S(=O)(=O)n2c(/C=C/c3ccc(OC)cc3)nnc21
inactive: dose: 100.0 mg/kg/injection, schedule: Q01DX001 (ip), vehicle: saline with Tween-80 90 % of control | dose: 200.0 mg/kg/injection, schedule: Q01DX001 (ip), vehicle: saline with Tween-80 88 % of control

COc1cc(OC)c(/C=C\c2nccc3ccccc23)c(OC)c1
inactive: [3] 95 % of control | [4] 96 % of control | dose: 200.0 mg/kg/injection, schedule: Q01DX009 (ip), vehicle: saline with Tween-80 96 % of control

CSc1nc2c(Cl)ncnc2s1
inactive: [6] 96 % of control | [7] 96 % of control

CC1CCC2(C)OC1OC2CN (stereo not given)
inactive: [8] 100 % of control | [9] 99 % of control | [10] 100 % of control

CC1=Nc2nc(=NCCCN(C)C)nc3cccc(n23)N1
inactive: dose: 15.0 mg/kg/injection, schedule: Q01DX005 (ip), vehicle: saline with Tween-80 99 % of control | dose: 30.0 mg/kg/injection, schedule: Q01DX005 (ip), vehicle: saline with Tween-80 100 % of control | [6] 104 % of control and 97 % of control

COC(=O)C(Cc1c[nH]c2ccccc12)NC(=O)C(CCCCN)N(C(=O)OCc1ccccc1)C(=O)OCc1ccccc1 (stereo not given)
inactive: [8] 92 % of control | [9] 91 % of control | [10] 86 % of control

Cc1cccc(N2CCN(S(C)(=O)=O)CC2)c1
inactive: dose: 100.0 mg/kg/injection, schedule: Q04DX003 (ip), vehicle: saline with Tween-80 101 % of control | [5] 102 % of control | dose: 400.0 mg/kg/injection, schedule: Q04DX003 (ip), vehicle: saline with Tween-80 110 % of control

CSc1nc(SC)c2c(CN=[N+]=[N-])c(Br)n(Cc3ccccc3)c2n1
inactive: dose: 3.13 mg/kg/injection, schedule: Q01DX001 (ip), vehicle: saline with Tween-80 98 % of control | dose: 6.25 mg/kg/injection, schedule: Q01DX001 (ip), vehicle: saline with Tween-80 86 % of control | dose: 25.0 mg/kg/injection, schedule: Q01DX001 (ip), vehicle: saline with Tween-80 86 % of control

CC1=CC(=O)C(O)C2(C)C1CC1OC(=O)C(O)C3(O)C4(C)OCC13C2C(O)C4O (stereo not given)
inactive: dose: 0.19 mg/kg/injection, schedule: Q01DX009 (ip), vehicle: saline + alcohol 102 % of control | dose: 0.38 mg/kg/injection, schedule: Q01DX009 (ip), vehicle: saline + alcohol 105 % of control | dose: 0.75 mg/kg/injection, schedule: Q01DX009 (ip), vehicle: saline + alcohol 119 % of control | dose: 1.5 mg/kg/injection, schedule: Q01DX009 (ip), vehicle: saline + alcohol 105 % of control and 112 % of control

CC1N=C(SCC(=O)c2ccc(F)cc2)N2C(C)N=C(SCC(=O)c3ccc(F)cc3)N12 (stereo not given)
inactive: [11] 111 % of control | [12] 111 % of control | [13] 98 % of control

CC(C)COCSCC(NC(=O)CNC(=O)C(Cc1ccccc1)NC(=O)CNC(=O)C(CSC(c1ccccc1)(c1ccccc1)c1ccccc1)NC(c1ccccc1)(c1ccccc1)c1ccccc1)C(=O)O (stereo not given)
inactive: dose: 15.0 mg/kg/injection, schedule: Q01DX005 (ip), vehicle: Klucel (hydroxypropylcellulose) (HPC) 97 % of control | dose: 30.0 mg/kg/injection, schedule: Q01DX005 (ip), vehicle: Klucel (hydroxypropylcellulose) (HPC) 96 % of control | dose: 60.0 mg/kg/injection, schedule: Q01DX005 (ip), vehicle: Klucel (hydroxypropylcellulose) (HPC) 88 % of control and 94 % of control

NNc1n[nH]c(=S)n1N
inactive: dose: 6.25 mg/kg/injection, schedule: Q01DX009 (ip), vehicle: Klucel (hydroxypropylcellulose) (HPC) 94 % of control | [14] 109 % of control | dose: 12.5 mg/kg/injection, schedule: Q01DX009 (ip), vehicle: Klucel (hydroxypropylcellulose) (HPC) 94 % of control | [1] 100 % of control | dose: 25.0 mg/kg/injection, schedule: Q01DX009 (ip), vehicle: Klucel (hydroxypropylcellulose) (HPC) 106 % of control | [2] 104 % of control

CN1CC(F)OC(F)(F)C1 (stereo not given)
inactive: dose: 50.0 mg/kg/injection, schedule: Q01DX005 (ip), vehicle: saline 102 % of control | dose: 100.0 mg/kg/injection, schedule: Q01DX005 (ip), vehicle: saline 100 % of control | dose: 200.0 mg/kg/injection, schedule: Q01DX005 (ip), vehicle: saline 100 % of control

O=S(=O)(O)c1cccnc1
inactive: [12] 104 % of control | dose: 100.0 mg/kg/injection, schedule: Q04DX003 (ip), vehicle: saline 100 % of control | [13] 104 % of control | dose: 200.0 mg/kg/injection, schedule: Q04DX003 (ip), vehicle: saline 95 % of control | dose: 400.0 mg/kg/injection, schedule: Q01DX009 (ip), vehicle: saline 95 % of control | dose: 400.0 mg/kg/injection, schedule: Q04DX003 (ip), vehicle: saline 100 % of control

COC(=O)c1nnn(Cc2ccccc2)c1Cl
inactive: dose: 50.0 mg/kg/injection, schedule: Q01DX005 (ip), vehicle: Klucel (hydroxypropylcellulose) (HPC) 98 % of control | dose: 100.0 mg/kg/injection, schedule: Q01DX005 (ip), vehicle: Klucel (hydroxypropylcellulose) (HPC) 103 % of control and 104 % of control | dose: 200.0 mg/kg/injection, schedule: Q01DX005 (ip), vehicle: Klucel (hydroxypropylcellulose) (HPC) 102 % of control and 105 % of control

O=P(c1ccccc1)(c1ccccc1)C(O)c1cccs1 (stereo not given)
inactive: [15] 90 % of control | [16] 88 % of control | [17] 92 % of control

CC(C)N(C(=O)SCC(Cl)=C(Cl)Cl)C(C)C
inactive: [6] 100 % of control | [7] 103 % of control | dose: 240.0 mg/kg/injection, schedule: Q01DX005 (ip), vehicle: saline with Tween-80 102 % of control

[O-]c1ccccc1C=NCCN1CC1.[O-]c1ccccc1C=NCCN1CC1.[Zn+2]
inactive: [14] 91 % of control | [1] 97 % of control | [2] 100 % of control

CCCCCCC1NC(CCCCCC)N2C(CCCCCC)N12 (stereo not given)
inactive: dose: 100.0 mg/kg/injection, schedule: Q04DX003 (ip), vehicle: Klucel (hydroxypropylcellulose) (HPC) 101 % of control | dose: 200.0 mg/kg/injection, schedule: Q04DX003 (ip), vehicle: Klucel (hydroxypropylcellulose) (HPC) 97 % of control | dose: 400.0 mg/kg/injection, schedule: Q04DX003 (ip), vehicle: Klucel (hydroxypropylcellulose) (HPC) 93 % of control

NS(=O)(=O)c1ccc2c(=O)c(C(=O)O)c[nH]c2c1
inactive: dose: 1.56 mg/kg/injection, schedule: Q01DX009 (ip), vehicle: saline 98 % of control | dose: 3.12 mg/kg/injection, schedule: Q01DX009 (ip), vehicle: saline 92 % of control | dose: 6.25 mg/kg/injection, schedule: Q01DX009 (ip), vehicle: saline 92 % of control | [11] 101 % of control | [12] 96 % of control

CC1(/C=C/c2ccccc2)NC(=O)NC1=O (stereo not given)
inactive: [15] 88 % of control | [16] 98 % of control | [17] 104 % of control
